Key:
[1] = Antiradical activity assay (DPPH radical scavenging); conditions: DPPH in ethanol, 30 min in the dark at room temperature, absorbance 520 nm; mean [SD] of 2 experiments
Protocol: The radical scavenging activity of test compounds was measured as previously described using 2,2-diphenyl-1-picrylhydrazyl (DPPH) as a stable radical with slight modifications. Particular care was taken in the preparation of the control (DPPH reagent + ethanol as a diluent without test compounds). Controls with O.D. of 0.350-0.360 at 520 nm were deemed as acceptable to avoid variations in IC50 calculations. 1 mL of DPPH in ethanol ([…]) was mixed with 1 mL of the test compounds at the indicated concentrations or their diluent (ethanol). Each mixture was then shaken vigorously and held in the dark for 30 min at room temperature. The absorbance of DPPH at 520 nm was then measured. The radical scavenging activity was expressed in terms of % inhibition of DPPH absorbance: (1) % Inhibition=[(Acontrol−Atest)/(Acontrol)] ×100, where A control is the absorbance of the control (DPPH solution without test compound) and A test is the absorbance of the test sample (DPPH solution plus compound). Data are expressed as means ± SD of 2 independent experiments, each performed in triplicate (Table 1). IC50 values were calculated from a sigmoidal concentration-response curve fitting model with a variable slope on GraphPad Prism 5 software (GraphPad software, San Diego, California).
Radical scavenging activities of analogous cinnamoyl esters 8a–h, cinnamoyl amides 9a–h, caffeoyl esters 15a–h, and caffeoyl amides 16a–h were assayed using 2,2-diphenyl-1-picrylhydrazyl (DPPH) as a stable radical and are expressed as IC50 concentrations in Table 1.

[2] = biological target: T1, 5-LO (Homo sapiens, UniProt P09917); assay: 5-LO products biosynthesis assay in thapsigargin-stimulated human PMNL; type: cell-based; set-up: 5-LO is highly expressed in PMNL; endogenous in cells; host or cells: human PMNL from peripheral blood; conditions: for potency relative to Zileuton (1) in human PMNL: comparison of IC50 values, thapsigargin-stimulated human PMNL; for IC50: read-out: Human PMNL IC50 (μM) [SD]
T1 sequence (P09917 1-674): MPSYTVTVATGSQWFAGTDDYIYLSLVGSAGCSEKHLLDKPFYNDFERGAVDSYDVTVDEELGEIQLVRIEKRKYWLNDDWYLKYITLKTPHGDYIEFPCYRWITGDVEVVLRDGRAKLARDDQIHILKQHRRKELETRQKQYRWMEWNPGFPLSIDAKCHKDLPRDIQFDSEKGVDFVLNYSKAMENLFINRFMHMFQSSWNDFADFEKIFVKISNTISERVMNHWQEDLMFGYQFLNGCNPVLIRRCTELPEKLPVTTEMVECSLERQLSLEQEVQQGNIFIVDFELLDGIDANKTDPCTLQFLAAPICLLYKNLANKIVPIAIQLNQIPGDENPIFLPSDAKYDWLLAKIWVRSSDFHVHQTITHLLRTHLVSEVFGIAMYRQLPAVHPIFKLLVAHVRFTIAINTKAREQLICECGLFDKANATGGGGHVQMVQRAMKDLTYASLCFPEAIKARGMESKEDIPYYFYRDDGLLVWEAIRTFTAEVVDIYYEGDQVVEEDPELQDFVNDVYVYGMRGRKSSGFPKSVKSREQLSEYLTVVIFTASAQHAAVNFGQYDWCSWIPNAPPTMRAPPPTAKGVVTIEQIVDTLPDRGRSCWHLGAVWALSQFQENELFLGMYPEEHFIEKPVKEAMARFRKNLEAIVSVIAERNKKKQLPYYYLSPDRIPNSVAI
Protocol: Human PMNL were prepared from peripheral blood as described and were suspended in HBSS containing 1.6 mM CaCl2 (10^7 cells/mL) and preincubated with compounds for 5 min at 37°C in the presence of 1 U/mL of adenosine deaminase (Sigma-Aldrich, Oakville, ON, Canada). Cells were then stimulated for 15 min at 37°C with 1 μM thapsigargin (Sigma-Aldrich). Reactions were stopped by the addition of 0.5 volume of cold MeOH : CH3CN (1 : 1) and 50 ng of PGB2 as internal standard and samples were stored at −20°C until processing on octadecyl (C18) columns and RP-HPLC analysis as indicated above. Data are expressed as means ± SEM of 3 independent experiments, each performed in duplicate (Figures 4 and 5).
5-LO is highly expressed in PMNL and these cells are important producers of LTB4 [28, 32].

[3] = biological target: T1, 5-LO; assay: 5-LO products biosynthesis assay in whole HEK293 cells stably transfected with 5-LO and FLAP; type: cell-based; set-up: expressed in transfected cells; conditions: for potency relative to Zileuton (1) in HEK293 cells: comparison of IC50 values
From the text: HEK293 cells were cotransfected with a pcDNA3.1 vector expressing 5-LO and a pBUDCE4.1 vector expressing 5-LO activating protein (FLAP) using Polyfect reagent (QIAGEN, Mississauga, ON, Canada) according to the manufacturer's protocol. Stable transfections of HEK293 cells were obtained following cell culture in the presence of Geneticin and Zeocin (Invitrogen, Burlington, ON, Canada). The resulting stable double transfectants were propagated in culture and aliquots were frozen. Once thawed for a series of experiments, each aliquot of cells is cultured for a maximum of 6 weeks before being discarded.
For cell stimulation of 5-LO products, transfected HEK293 cells were collected following trypsinization, washed and the cell pellet was resuspended in Hank's balanced salt solution (HBSS) (Lonza, Walkersville, MD) containing 1.6 mM CaCl2 at a concentration of 5 × 10^5 cells mL^−1. Cells were preincubated with each compound at the indicated concentration for 5 min at 37°C. Cells were then stimulated for 15 minutes at 37°C with the addition of 10 μM calcium ionophore A23187 (Sigma-Aldrich, Oakville, ON, Canada) and 10 μM arachidonic acid (Cayman Chemical, Ann Arbor, MI). Stimulations were stopped and processed on RP-HPLC as described previously. Data are expressed as means ± SEM of 3 independent experiments, each performed in duplicate (Figures 2 and 3).

Row | Compound | melting point | IC50 [1] [µM] | further results
1 | O=C(/C=C/c1ccc(O)c(O)c1)OCCn1cc(-c2ccccc2)nn1 [15e] | 193 to 195 °C (dec.) | 15.1 | –
2 | O=C(/C=C/c1ccc(O)c(O)c1)NCCn1cc(-c2ccc(F)cc2)nn1 [16g] | 226 °C (dec.) | 12 | potency relative to Zileuton (1) in human PMNL [2]: less active than Zileuton; IC50 [2]: 8.8 µM; potency relative to Zileuton (1) in HEK293 cells [3]: equipotent to Zileuton; 5-LO inhibition in whole HEK293 cells (in words) ([3]; whole HEK293 cells, 1 μM): no significant 5-LO inhibitory activity
3 | CCCc1cn(CCNC(=O)/C=C/c2ccc(O)c(O)c2)nn1 [16b] | 163 to 165 °C | 12.1 | –
4 | CCCc1cn(CCOC(=O)C=Cc2ccccc2)nn1 [8b, 2-(4-Propyl-1H-1,2,3-triazol-1-yl)ethyl Cinnamate] | 63 to 64 °C | – | –
5 | O=C(C=Cc1ccccc1)OCCn1cc(-c2ccc(F)cc2)nn1 [8g] | 134 to 135 °C | – | –
6 | O=C(C=Cc1ccccc1)NCCn1cc(C2CCCCC2)nn1 [9c] | 159 to 161 °C | – | –
7 | O=Cc1ccc(-c2cn(CCNC(=O)C=Cc3ccccc3)nn2)cc1 [9h] | 200 to 201 °C | – | –
8 | O=C(/C=C/c1ccc(O)c(O)c1)NCCn1cc(C2=CCCCC2)nn1 [16d] | 168 to 169 °C | 11.2 | –
9 | O=C(C=Cc1ccccc1)NCCn1cc(C2=CCCCC2)nn1 [9d] | 170 to 171 °C | – | –
10 | O=C(/C=C/c1ccc(O)c(O)c1)OCCn1cc(-c2ccc(F)cc2)nn1 [15g] | 238 to 240 °C (dec.) | 9.4 | potency relative to Zileuton (1) in human PMNL [2]: equivalent to Zileuton; IC50 [2]: 3.3 µM; potency relative to Zileuton (1) in HEK293 cells [3]: four times more potent than Zileuton
11 | Cc1ccc(-c2cn(CCNC(=O)C=Cc3ccccc3)nn2)cc1 [9f] | 208 °C | – | –
12 | O=C(C=Cc1ccccc1)OCCn1ccnn1 [8a, 2-(1H-1,2,3-Triazol-1-yl)ethyl Cinnamate] | 99 to 100 °C | – | –
13 | O=Cc1ccc(-c2cn(CCNC(=O)/C=C/c3ccc(O)c(O)c3)nn2)cc1 [16h] | 228 to 230 °C (dec.) | 18.1 | –
14 | O=C1O[C@H]([C@@H](O)CO)C(O)=C1O [Ascorbic acid, reference compound] | – | 75.4 | –
15 | O=C(C=Cc1ccccc1)NCCn1cc(-c2ccccc2)nn1 [9e] | 171 to 173 °C | – | –
16 | O=C(/C=C/c1ccc(O)c(O)c1)NCCn1cc(-c2ccccc2)nn1 [16e] | 208 °C (dec.) | 10.5 | –
17 | Cc1ccc(-c2cn(CCNC(=O)/C=C/c3ccc(O)c(O)c3)nn2)cc1 [16f] | 220 °C (dec.) | 13 | potency relative to Zileuton (1) in human PMNL [2]: less active than Zileuton; IC50 [2]: 8.2 µM; potency relative to Zileuton (1) in HEK293 cells [3]: equipotent to Zileuton; 5-LO inhibition in whole HEK293 cells (in words) ([3]; whole HEK293 cells, 1 μM): no significant 5-LO inhibitory activity
18 | O=C(/C=C/c1ccc(O)c(O)c1)NCCn1ccnn1 [16a] | 163 to 165 °C | 15.4 | –

Row | Compound | melting point | IC50 [1] [µM] | further results
19 | O=C(/C=C/c1ccc(O)c(O)c1)OCCn1cc(C2CCCCC2)nn1 [15c] | 191 °C (dec.) | 9.3 | –
20 | CCCc1cn(CCOC(=O)/C=C/c2ccc(O)c(O)c2)nn1 [15b] | 180 to 181 °C (dec.) | 9.37 | –
21 | O=C(/C=C/c1ccc(O)c(O)c1)OCCc1ccccc1 [CAPE 2, caffeic acid phenethyl ester, reference compound] | – | 16.5 | inhibition at 1 µM ([2]; read-out: inhibition of 5-LO, stimulated human PMNL, 1 μM): ~75%; 5-LO products synthesis, % of the control value ([3]; whole HEK293 cells, 1 μM): roughly 50%; inhibition at 1 µM ([3]; whole HEK293 cells, 1 μM, read-out: inhibition of LTs biosynthesis): ~50%
22 | O=C(C=Cc1ccccc1)OCCn1cc(-c2ccccc2)nn1 [8e] | 122 to 123 °C | – | –
23 | Cc1ccc(-c2cn(CCOC(=O)/C=C/c3ccc(O)c(O)c3)nn2)cc1 [15f] | 181 to 182 °C (dec.) | 9.01 | potency relative to Zileuton (1) in human PMNL [2]: equivalent to Zileuton; IC50 [2]: 3.1 µM; 5-LO inhibition in stimulated human PMNL (in words) ([2]; stimulated human PMNL, 1 μM): roughly equipotent with Zileuton; potency relative to Zileuton (1) in HEK293 cells [3]: four times more potent than Zileuton
24 | O=Cc1ccc(-c2cn(CCOC(=O)/C=C/c3ccc(O)c(O)c3)nn2)cc1 [15h] | 220 to 230 °C (dec.) | 8.85 | 5-LO inhibition in stimulated human PMNL (in words) ([2]; stimulated human PMNL, 1 μM): roughly equipotent with Zileuton
25 | O=C(/C=C/c1ccc(O)c(O)c1)OCCn1cc(C2=CCCCC2)nn1 [15d] | 219 to 220 °C (dec.) | 8.7 | 5-LO inhibition in stimulated human PMNL (in words) ([2]; stimulated human PMNL, 1 μM): roughly equipotent with Zileuton
26 | CC(c1cc2ccccc2s1)N(O)C(N)=O (stereo not drawn) [Zileuton 1, Zileuton, reference compound] | – | > 100 | 5-LO inhibition in whole HEK293 cells (in words) ([3]; whole HEK293 cells, 1 μM): little to no activity; inhibition at 10 µM ([3]; whole HEK293 cells, 10 μM (not shown)): ~25%
27 | O=C(/C=C/c1ccc(O)c(O)c1)OCCn1cc(COC(=O)/C=C/c2ccccc2)nn1 [compound 3, reference compound] | – | 12 | 5-LO inhibition in stimulated human PMNL (in words) ([2]; stimulated human PMNL, 1 μM): roughly equipotent with Zileuton
28 | O=C(C=Cc1ccccc1)OCCn1cc(C2=CCCCC2)nn1 [8d] | 101 to 103 °C | – | –
29 | O=C(C=Cc1ccccc1)NCCn1ccnn1 [9a] | 140 to 141 °C | – | –
30 | Cc1ccc(-c2cn(CCOC(=O)C=Cc3ccccc3)nn2)cc1 [8f] | 139 to 140 °C | – | –
31 | O=C(/C=C/c1ccc(O)c(O)c1)NCCn1cc(C2CCCCC2)nn1 [16c] | 183 to 184 °C | 9.87 | –
32 | O=C(C=Cc1ccccc1)NCCn1cc(-c2ccc(F)cc2)nn1 [9g] | 193 to 196 °C | – | –
33 | O=Cc1ccc(-c2cn(CCOC(=O)C=Cc3ccccc3)nn2)cc1 [8h] | 127 to 128 °C | – | –
34 | O=C(/C=C/c1ccc(O)c(O)c1)OCCn1ccnn1 [15a, (E)-2-(1H-1,2,3-Triazol-1-yl)ethyl 3-(3,4-Dihydroxyphenyl)acrylate] | 196 to 198 °C (dec.) | 9.55 | 5-LO inhibition in stimulated human PMNL (in words) ([2]; stimulated human PMNL, 1 μM): complete loss of inhibition
35 | O=C(C=Cc1ccccc1)OCCn1cc(C2CCCCC2)nn1 [8c] | 119 °C | – | –

Source: PMC4207410, “Clicked Cinnamic/Caffeic Esters and Amides as Radical Scavengers and 5-Lipoxygenase Inhibitors” (International Journal of Medicinal Chemistry, 2014)
